In ChEMBL document CHEMBL4414548 (J Med Chem, 2019):

Assays:
[1] = target: T1, Non-receptor tyrosine-protein kinase TYK2 (Homo sapiens, UniProt P29597); assay: Inhibition of fluorescein-labeled kinase tracer binding to His-TVMV-fused TYK2 JH2 domain (575 to 869 residues) (unknown origin) measured after 90 mins by HTRF assay
[2] = target: T1, Non-receptor tyrosine-protein kinase TYK2; assay: Inhibition of TYK2 JH1 domain (unknown origin)
[3] = target: Tyrosine-protein kinase JAK1 (Homo sapiens, UniProt P23458); assay: Inhibition of JAK1 JH1 domain (unknown origin)
[4] = target: Tyrosine-protein kinase JAK2 (Homo sapiens, UniProt O60674); assay: Inhibition of JAK2 JH1 domain (unknown origin)
Tyrosine-protein kinase JAK2, sequence (O60674 whole entry, the tested form may be a part): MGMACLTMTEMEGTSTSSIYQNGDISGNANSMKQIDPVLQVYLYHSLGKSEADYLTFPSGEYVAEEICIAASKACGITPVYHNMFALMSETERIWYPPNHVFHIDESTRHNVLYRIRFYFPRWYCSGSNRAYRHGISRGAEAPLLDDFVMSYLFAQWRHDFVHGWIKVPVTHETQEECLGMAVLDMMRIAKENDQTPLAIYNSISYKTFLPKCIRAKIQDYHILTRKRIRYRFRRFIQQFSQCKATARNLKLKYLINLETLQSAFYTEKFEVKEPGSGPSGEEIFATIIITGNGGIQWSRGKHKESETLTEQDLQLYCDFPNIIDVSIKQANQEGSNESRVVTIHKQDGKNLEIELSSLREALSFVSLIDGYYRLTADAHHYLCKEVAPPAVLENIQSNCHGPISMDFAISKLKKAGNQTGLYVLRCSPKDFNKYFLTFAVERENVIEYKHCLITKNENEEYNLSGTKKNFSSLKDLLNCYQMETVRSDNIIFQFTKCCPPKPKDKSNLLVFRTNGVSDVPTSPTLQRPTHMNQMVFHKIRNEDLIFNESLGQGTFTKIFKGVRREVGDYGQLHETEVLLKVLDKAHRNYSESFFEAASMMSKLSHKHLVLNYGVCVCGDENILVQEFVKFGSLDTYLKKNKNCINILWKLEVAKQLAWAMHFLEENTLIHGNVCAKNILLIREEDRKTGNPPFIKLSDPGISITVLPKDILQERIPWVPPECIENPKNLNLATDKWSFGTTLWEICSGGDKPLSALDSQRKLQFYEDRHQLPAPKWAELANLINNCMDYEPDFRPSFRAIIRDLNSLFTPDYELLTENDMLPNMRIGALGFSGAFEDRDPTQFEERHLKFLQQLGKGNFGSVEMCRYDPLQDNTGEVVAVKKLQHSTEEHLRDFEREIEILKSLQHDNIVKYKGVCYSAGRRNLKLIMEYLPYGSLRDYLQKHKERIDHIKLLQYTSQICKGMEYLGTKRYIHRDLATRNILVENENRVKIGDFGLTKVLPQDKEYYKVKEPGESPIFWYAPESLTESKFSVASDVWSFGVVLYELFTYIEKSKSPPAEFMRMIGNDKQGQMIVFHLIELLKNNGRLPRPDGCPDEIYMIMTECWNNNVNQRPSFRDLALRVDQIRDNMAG

[5] = target: JAK2/TYK2 (Homo sapiens, UniProt O60674+P29597); assay: Inhibition of TYK2/JAK2 in IL23-stimulated human Kit225 cells by steady-glo luciferase assay
JAK2/TYK2, sequence (O60674 whole entry): as the sequence (O60674 whole entry, the tested form may be a part) above
JAK2/TYK2, sequence (P29597 whole entry): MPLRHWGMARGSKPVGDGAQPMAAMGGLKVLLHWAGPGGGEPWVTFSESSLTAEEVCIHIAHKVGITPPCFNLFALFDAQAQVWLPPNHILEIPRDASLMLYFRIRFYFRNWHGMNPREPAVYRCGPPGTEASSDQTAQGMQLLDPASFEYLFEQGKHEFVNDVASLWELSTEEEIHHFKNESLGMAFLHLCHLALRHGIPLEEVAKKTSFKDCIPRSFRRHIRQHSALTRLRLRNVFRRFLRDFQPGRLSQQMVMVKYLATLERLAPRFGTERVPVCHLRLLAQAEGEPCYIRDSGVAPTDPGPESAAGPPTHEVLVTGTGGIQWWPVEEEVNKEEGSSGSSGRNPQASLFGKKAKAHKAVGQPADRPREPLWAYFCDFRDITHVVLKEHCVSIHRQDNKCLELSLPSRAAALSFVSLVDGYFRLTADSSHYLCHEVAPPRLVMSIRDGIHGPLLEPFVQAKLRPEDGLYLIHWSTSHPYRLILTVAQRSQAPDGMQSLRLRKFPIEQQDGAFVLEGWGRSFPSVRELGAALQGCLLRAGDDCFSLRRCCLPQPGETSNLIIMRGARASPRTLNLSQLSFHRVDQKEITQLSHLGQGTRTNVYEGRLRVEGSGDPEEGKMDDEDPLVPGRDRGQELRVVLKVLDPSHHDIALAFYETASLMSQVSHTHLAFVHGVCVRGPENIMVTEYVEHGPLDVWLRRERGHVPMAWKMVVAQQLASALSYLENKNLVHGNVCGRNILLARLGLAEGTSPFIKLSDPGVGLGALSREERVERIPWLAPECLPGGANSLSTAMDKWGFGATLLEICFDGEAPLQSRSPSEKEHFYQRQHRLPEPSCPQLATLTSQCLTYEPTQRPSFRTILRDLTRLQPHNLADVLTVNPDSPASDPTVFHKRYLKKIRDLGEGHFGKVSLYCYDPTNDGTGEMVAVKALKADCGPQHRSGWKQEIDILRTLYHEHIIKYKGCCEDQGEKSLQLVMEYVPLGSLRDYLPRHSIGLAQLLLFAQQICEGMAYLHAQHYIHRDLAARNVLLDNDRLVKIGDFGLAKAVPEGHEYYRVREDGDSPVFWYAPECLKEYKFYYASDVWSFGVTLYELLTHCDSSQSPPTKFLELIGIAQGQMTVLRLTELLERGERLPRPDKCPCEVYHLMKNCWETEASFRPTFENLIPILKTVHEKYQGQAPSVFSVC

[6] = target: JAK1/TYK2 (Homo sapiens, UniProt P23458+P29597); assay: Inhibition of TYK2/JAK1 in IFNalpha-stimulated human Kit225 cells by steady-glo luciferase assay
[7] = target: JAK3/JAK1 (Homo sapiens, UniProt P23458+P52333); assay: Inhibition of JAK1/JAK3 (unknown origin) in IL-2 stimulated cells by cell based assay
[8] = target: JAK2/JAK1 (Homo sapiens, UniProt O60674+P23458); assay: Inhibition of JAK1/JAK2 (unknown origin) in GM-CSF stimulated cells by cell based assay
[9] = target: T1, Non-receptor tyrosine-protein kinase TYK2; assay: Inhibition of TYK2 JH2 domain in human whole blood assessed as inhibition of IFNalpha-induced STAT5 phosphorylation preincubated for 1 hr followed by IFNalpha stimulation and measured after 15 mins by fluorescence assay; assay type: tissue-based
[10] = Permeability across apical to basolateral side in human Caco2 cells; assay type: ADME, cell-based; conditions: Caco-2, read-out: permeability
[11] = Efflux ratio of permeability in human Caco2; assay type: ADME, cell-based; conditions: Caco-2
[12] = target: Mast/stem cell growth factor receptor Kit (Homo sapiens, UniProt P10721); assay: Inhibition of cKIT (unknown origin)
Mast/stem cell growth factor receptor Kit, sequence (P10721 whole entry): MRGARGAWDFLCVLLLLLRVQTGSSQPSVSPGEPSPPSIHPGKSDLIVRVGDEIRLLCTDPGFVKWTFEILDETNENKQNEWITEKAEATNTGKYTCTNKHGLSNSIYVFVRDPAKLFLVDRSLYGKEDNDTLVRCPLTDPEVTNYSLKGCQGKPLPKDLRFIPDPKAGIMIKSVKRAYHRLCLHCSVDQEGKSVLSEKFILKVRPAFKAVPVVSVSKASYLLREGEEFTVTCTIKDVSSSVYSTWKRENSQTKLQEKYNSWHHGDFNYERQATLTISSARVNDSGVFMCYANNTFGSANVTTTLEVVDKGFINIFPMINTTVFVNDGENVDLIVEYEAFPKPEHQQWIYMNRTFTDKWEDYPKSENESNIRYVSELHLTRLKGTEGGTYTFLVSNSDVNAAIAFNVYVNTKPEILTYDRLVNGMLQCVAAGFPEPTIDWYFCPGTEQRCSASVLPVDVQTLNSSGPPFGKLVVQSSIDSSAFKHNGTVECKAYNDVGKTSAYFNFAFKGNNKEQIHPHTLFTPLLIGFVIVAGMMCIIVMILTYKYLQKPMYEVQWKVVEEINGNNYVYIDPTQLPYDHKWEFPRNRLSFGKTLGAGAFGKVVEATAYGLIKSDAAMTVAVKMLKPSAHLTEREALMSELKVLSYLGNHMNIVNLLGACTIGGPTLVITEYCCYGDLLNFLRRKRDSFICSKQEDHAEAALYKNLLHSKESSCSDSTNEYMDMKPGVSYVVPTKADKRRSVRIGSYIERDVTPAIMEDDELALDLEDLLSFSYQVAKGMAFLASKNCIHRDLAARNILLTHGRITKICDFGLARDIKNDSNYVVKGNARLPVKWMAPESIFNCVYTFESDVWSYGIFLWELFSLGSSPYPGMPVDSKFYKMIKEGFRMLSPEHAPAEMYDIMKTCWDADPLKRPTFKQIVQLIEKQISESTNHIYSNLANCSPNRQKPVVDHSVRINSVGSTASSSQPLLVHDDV

[13] = target: Voltage-gated inwardly rectifying potassium channel KCNH2 (Homo sapiens, UniProt Q12809); assay: Inhibition of human ERG by fluorescence polarization assay
Voltage-gated inwardly rectifying potassium channel KCNH2, sequence (Q12809 whole entry, the tested form may be a part): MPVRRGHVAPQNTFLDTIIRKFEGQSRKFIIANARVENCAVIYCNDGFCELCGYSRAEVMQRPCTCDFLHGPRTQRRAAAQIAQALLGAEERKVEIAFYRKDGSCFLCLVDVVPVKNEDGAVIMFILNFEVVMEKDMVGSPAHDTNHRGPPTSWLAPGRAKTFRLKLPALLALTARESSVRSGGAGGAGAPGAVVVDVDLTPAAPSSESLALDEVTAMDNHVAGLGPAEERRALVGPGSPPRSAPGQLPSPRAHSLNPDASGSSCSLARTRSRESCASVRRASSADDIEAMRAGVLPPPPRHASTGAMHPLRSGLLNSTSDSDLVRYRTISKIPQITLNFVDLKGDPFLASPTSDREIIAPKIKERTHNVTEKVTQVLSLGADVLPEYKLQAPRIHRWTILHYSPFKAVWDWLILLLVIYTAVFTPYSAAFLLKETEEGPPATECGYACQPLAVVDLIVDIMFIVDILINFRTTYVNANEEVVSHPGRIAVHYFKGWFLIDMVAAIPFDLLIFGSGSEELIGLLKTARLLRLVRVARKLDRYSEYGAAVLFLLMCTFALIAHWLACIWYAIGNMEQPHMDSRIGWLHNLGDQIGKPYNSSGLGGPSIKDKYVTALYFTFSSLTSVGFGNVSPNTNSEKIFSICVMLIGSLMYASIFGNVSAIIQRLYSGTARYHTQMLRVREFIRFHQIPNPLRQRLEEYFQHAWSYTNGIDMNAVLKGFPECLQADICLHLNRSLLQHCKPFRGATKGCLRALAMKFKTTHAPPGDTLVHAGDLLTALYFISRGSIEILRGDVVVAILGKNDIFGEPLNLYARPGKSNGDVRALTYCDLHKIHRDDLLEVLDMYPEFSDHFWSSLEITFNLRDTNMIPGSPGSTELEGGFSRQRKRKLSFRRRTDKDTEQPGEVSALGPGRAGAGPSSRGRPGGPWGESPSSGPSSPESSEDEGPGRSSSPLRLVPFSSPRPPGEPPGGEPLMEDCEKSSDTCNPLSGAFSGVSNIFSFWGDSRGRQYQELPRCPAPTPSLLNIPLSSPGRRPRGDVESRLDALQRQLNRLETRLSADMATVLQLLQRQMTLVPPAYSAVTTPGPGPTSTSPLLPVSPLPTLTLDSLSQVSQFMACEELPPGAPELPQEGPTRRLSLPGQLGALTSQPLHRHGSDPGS

[14] = target: 3',5'-cyclic-AMP phosphodiesterase 4D (Homo sapiens, UniProt Q08499); assay: Inhibition of [3H]cAMP binding to recombinant human His-Tb fused PDE4D2 (86 to 413 residues) expressed in Escherichia coli using [3H]cAMP as substrate preincubated for 10 mins followed by [3H]cAMP addition and measured after 1 hr by scintillation proximity assay
[15] = Metabolic stability in human liver microsomes assessed as parent compound remaining after 10 mins; assay type: ADME, Microsome; conditions: read-out: Stability
[16] = Metabolic stability in rat liver microsomes assessed as parent compound remaining after 10 mins; assay type: ADME, Microsome; conditions: read-out: Stability
[17] = Metabolic stability in mouse liver microsomes assessed as parent compound remaining after 10 mins; assay type: ADME, Microsome; conditions: read-out: Stability
[18] = Protein binding in human plasma assessed as unbound fraction; assay type: ADME, cell-free
[19] = Cmax in mouse at 10 mg/kg, po; assay type: ADME, organism-based; parameters: dose 10 mg/kg, route oral; conditions: in vivo
[20] = AUClast in mouse at 10 mg/kg, po; assay type: ADME, organism-based; parameters: dose 10 mg/kg, route oral, time 0 - last; conditions: in vivo
[21] = target: Non-receptor tyrosine-protein kinase TYK2 (Mus musculus, UniProt Q9R117); assay: Inhibition of TYK2 JH2 domain in mouse whole blood assessed as inhibition of IFNalpha-induced STAT1 phosphorylation preincubated for 1 hr followed by IFNalpha stimulation and measured after 15 mins by fluorescence assay; assay type: tissue-based
[22] = Half life in human liver microsomes; assay type: ADME, Microsome
[23] = Half life in rat liver microsomes; assay type: ADME, Microsome
[24] = Half life in mouse liver microsomes; assay type: ADME, Microsome
[25] = Half life in cynomolgus monkey liver microsomes; assay type: ADME, Macaca fascicularis, Microsome
[26] = Half life in dog liver microsomes; assay type: ADME, Canis lupus familiaris, Microsome
[27] = Partition coefficient, log P of compound by HPLC analysis; assay type: physicochemical; conditions: octanol/water
[28] = Cmax in mouse at 10 mg/kg, po after 7 hrs; assay type: ADME, organism-based; parameters: dose 10 mg/kg, route oral; conditions: in vivo
[29] = AUClast in mouse at 10 mg/kg, po after 7 hrs; assay type: ADME, organism-based; parameters: time < 7 hr, dose 10 mg/kg, route oral; conditions: in vivo

T1 sequence (P29597 whole entry, the tested form may be a part): as the sequence (P29597 whole entry) above

SMILES | IC50 [1] | IC50 [5] | IC50 [6] | IC50 [9] | Papp A→B [10] | efflux ratio [11] | IC50 [14] | remaining at 10 min [15] | remaining at 10 min [16] | remaining at 10 min [17] | other results
CN(C)C(=O)c1cnc(Nc2ccc(F)cn2)cc1Nc1ccccc1C(N)=O | 87 nM | 11000 nM | 12000 nM |  |  |  |  |  |  |  | IC50 [2]: > 2000 nM; IC50 [3]: > 2000 nM; IC50 [4]: > 2000 nM; IC50 [7]: > 12.5 µM; IC50 [8]: > 12.5 µM
CNC(=O)c1cnc(Nc2cc(C)ccn2)cc1Nc1ccccc1S(C)(=O)=O |  | 27 nM | 21 nM | 190 nM | 6.5 ×10⁻⁶ cm/s | 9 |  |  |  |  | IC50 [12]: > 2000 nM; IC50 [13]: 16 µM
CNC(=O)c1cnc(Nc2ccc(F)cn2)cc1Nc1ccccc1C(N)=O | 1.3 nM | 660 nM | 320 nM | 530 nM | < 1.5 ×10⁻⁶ cm/s | > 35 | 10.4 µM | 94% | 83% | 82% | IC50 [2]: > 2000 nM; IC50 [3]: > 2000 nM; IC50 [4]: > 2000 nM; IC50 [7]: > 12.5 µM; IC50 [8]: > 12.5 µM; fraction unbound [18]: 0.263; Cmax [19]: 36 nM; AUC(0-t) [20]: 0.15 µM·h
CCS(=O)(=O)c1ccccc1Nc1cc(Nc2ccc(F)cn2)ncc1C(=O)NC | 8 nM | 1900 nM | 1000 nM | 4400 nM | 5.3 ×10⁻⁶ cm/s | 6 | 4.6 µM | 91% | 76% | 43% | 
CNC(=O)c1cnc(NC(=O)C2CC2)cc1Nc1ccccc1S(C)(=O)=O | 1.6 nM | 430 nM | 390 nM | 310 nM | 1.7 ×10⁻⁶ cm/s | 29 |  |  |  |  | IC50 [21]: 830 nM; IC50 [12]: > 2000 nM; IC50 [13]: > 80 µM; half-life [22]: > 120 min; half-life [23]: 115 min; half-life [24]: 10 min; half-life [25]: 108 min; half-life [26]: 34 min; logP [27]: 1.89; Cmax [28]: 190 nM; AUC(0-t) at 7 h [29]: 0.56 µM·h
CNC(=O)c1cnc(Nc2ccccc2)cc1Nc1ccccc1C(N)=O | 33 nM | 6900 nM | 7600 nM |  |  |  |  |  |  |  | 
CNC(=O)c1cnc(Nc2ccc(C)nn2)cc1Nc1ccccc1S(C)(=O)=O |  | 490 nM | 320 nM | 630 nM | < 1.5 ×10⁻⁶ cm/s | > 12 |  |  |  |  | IC50 [12]: > 2000 nM; IC50 [13]: 43 µM
CNC(=O)c1cnc(Nc2ccc(F)cn2)cc1Nc1ccccc1SC | 1.8 nM | 330 nM | 240 nM | 3100 nM | 7.9 ×10⁻⁶ cm/s | 0.5 | 4.4 µM | 36% | 9% | 30% | 
CNC(=O)c1cnc(Nc2ncccc2F)cc1Nc1ccccc1C(N)=O | 5.9 nM | 1300 nM | 1800 nM |  |  |  |  |  |  |  | 
CNC(=O)c1cnc(Nc2ccc(F)cn2)cc1Nc1ccccc1 | 11 nM | 5600 nM | 5200 nM | > 10000 nM | 29.3 ×10⁻⁶ cm/s | 0.5 | 4.5 µM | 51% | 65% | 37% | 
CNC(=O)c1cnc(Nc2ncccn2)cc1Nc1ccccc1C(N)=O | 60 nM | > 12500 nM | > 12500 nM |  |  |  |  |  |  |  | 
[2H]C([2H])([2H])NC(=O)c1nnc(Nc2ccc(F)cn2)cc1Nc1ccccc1S(C)(=O)=O | 0.58 nM |  |  | 200 nM | 14.3 ×10⁻⁶ cm/s | 3.4 |  |  |  |  | IC50 [21]: 380 nM; half-life [22]: 71 min; half-life [23]: 80 min; half-life [24]: 50 min; half-life [25]: 10 min; half-life [26]: 32 min; logP [27]: 2.77; Cmax [28]: 3890 nM; AUC(0-t) at 7 h [29]: 11.6 µM·h
